Test results taken from US10376481B2, “Compounds and methods for inhibiting NHE-mediated antiport in the treatment of disorders associated with fluid retention or salt overload and gastrointestinal tract disorders” (ARDELYX, INC, priority 2012, dated 2019).

Tests used:
[1] = molecular target: T1, human NHE3 (Homo sapiens, UniProt P48764); assay: Cell-based assay of NHE-3 activity (pre-incubation inhibition), human; conditions: for IC50: PS120 fibroblasts stably expressing human NHE3, 10 min pre-incubation with 0-30 μM test compound, read-out: pIC50 (human Preincubation assay) (converted); for % inhibition (human Preincubation assay): PS120 fibroblasts stably expressing human NHE3, pre-incubation with test compound
T1 sequence (P48764 26-834): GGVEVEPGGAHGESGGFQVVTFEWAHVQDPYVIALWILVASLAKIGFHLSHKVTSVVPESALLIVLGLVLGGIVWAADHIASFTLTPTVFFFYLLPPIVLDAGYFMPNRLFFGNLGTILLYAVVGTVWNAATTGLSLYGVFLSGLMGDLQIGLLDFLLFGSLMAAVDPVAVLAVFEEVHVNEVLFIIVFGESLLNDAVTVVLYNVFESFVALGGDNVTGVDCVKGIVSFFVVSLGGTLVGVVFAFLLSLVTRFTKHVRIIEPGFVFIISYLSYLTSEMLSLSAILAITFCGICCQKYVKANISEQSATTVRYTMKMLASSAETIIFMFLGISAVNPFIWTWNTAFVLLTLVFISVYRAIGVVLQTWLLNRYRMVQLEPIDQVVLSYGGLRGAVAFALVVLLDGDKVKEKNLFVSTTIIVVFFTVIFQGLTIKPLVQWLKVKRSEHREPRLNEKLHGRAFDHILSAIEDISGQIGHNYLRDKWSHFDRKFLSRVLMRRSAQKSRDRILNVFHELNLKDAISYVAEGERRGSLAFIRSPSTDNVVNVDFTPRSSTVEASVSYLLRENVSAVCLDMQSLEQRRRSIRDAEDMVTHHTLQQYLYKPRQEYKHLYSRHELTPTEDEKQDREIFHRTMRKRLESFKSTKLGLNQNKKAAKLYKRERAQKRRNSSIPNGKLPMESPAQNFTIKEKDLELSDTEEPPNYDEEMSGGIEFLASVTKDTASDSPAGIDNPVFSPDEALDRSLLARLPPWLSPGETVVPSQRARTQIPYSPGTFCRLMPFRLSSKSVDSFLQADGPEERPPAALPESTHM
Experimental: Rat and human NHE-3-mediated Na^+-dependent H^+ antiport was measured using a modification of the pH sensitive dye method originally reported by Paradiso (Proc. Natl. Acad. Sci. USA. (1984) 81(23): 7436-7440, which is hereby incorporated by reference in its entirety). PS120 fibroblasts stably expressing human NHE3 were obtained from Mark Donowitz (Baltimore, Md.). Opossum kidney (OK) cells were obtained from the ATCC and propagated per their instructions. The rat NHE-3 gene (GenBank M85300) was introduced into OK cells via electroporation, and cells were seeded into 96 well plates and grown overnight. Medium was aspirated from the wells then incubated for 30 min at 37° C. with NH4Cl-HEPES buffer (20 mM NH4Cl, 80 mM NaCl, 50 mM HEPES, 5 mM KCl, 2 mM CaCl2, 1 mM MgCl2, pH 7.4) containing 5 μM BCECF-AM. Cells were washed once with Ammonium free, Nat-free HEPES (100 mM choline, 50 mM HEPES, 10 mM glucose, 5 mM KCl, 2 mM CaCl2, 1 mM MgCl2, pH 7.4) and incubated in the same buffer for 10 minutes at room temperature to lower intracellular pH with 0-30 μM test compound. […] Changes in intracellular pH were monitored using a FLIPR Tetra® (Molecular Devices, Sunnyvale, Calif.) by excitation at λex 439 to 505 nm, and measuring BCECF fluorescence at λem 538 nm. The initial rate of the fluorescence ratio change was used as a measure of NHE-mediated Na^+/H^+ activity, and reported as the change in fluorescence ratio per minute. Initial rates were plotted as the average 2 or more replicates, and pIC50 values were estimated using GraphPad Prism.

[2] = molecular target: T1, human NHE3; assay: Cell-based assay of NHE-3 activity (persistent inhibition), human; conditions: PS120 fibroblasts stably expressing human NHE3, 60 min incubation then washout; for IC50: read-out: pIC50 (human Persistence assay) (converted)
Experimental: The ability of compounds to inhibit human and rat NHE-3-mediated Na^+-dependent H^+ antiport after application and washout was measured using a modification of the pH sensitive dye method described above. PS120 fibroblasts stably expressing human NHE3 were obtained from Mark Donowitz (Baltimore, Md.). Opossum kidney (OK) cells were obtained from the ATCC and propagated per their instructions. The rat NHE-3 gene was introduced into OK cells via electroporation, and cells were seeded into 96 well plates and grown overnight. Medium was aspirated from the wells, cells were washed once with NaCl-HEPES buffer (100 mM NaCl, 50 mM HEPES, 10 mM glucose, 5 mM KCl, 2 mM CaCl2, 1 mM MgCl2, pH 7.4), then overlayed with NaCl-HEPES buffer containing 0-30 μM test compound. After a 60 min incubation at room temperature, the test drug containing buffer was aspirated from the cells. Following aspiration, cells were washed once with NaCl-HEPES buffer without drug, then incubated for 30 min at 37° C. with NH4Cl-HEPES buffer (20 mM NH4Cl, 80 mM NaCl, 50 mM HEPES, 5 mM KCl, 2 mM CaCl2, 1 mM MgCl2, pH 7.4) containing 5 μM BCECF-AM. Cells were washed once with Ammonium free, Na^+-free HEPES (100 mM choline, 50 mM HEPES, 10 mM glucose, 5 mM KCl, 2 mM CaCl2, 1 mM MgCl2, pH 7.4) and incubated in the same buffer for 10 minutes at room temperature to lower intracellular pH. NHE-3-mediated recovery of neutral intracellular pH was initiated (10 min after compound washout) by addition of Na-HEPES buffer. […] Changes in intracellular pH were monitored using a FLIPR Tetra® (Molecular Devices, Sunnyvale, Calif.) by excitation at λex 439 to 505 nm, and measuring BCECF fluorescence at λem 538 nm. The initial rate of the fluorescence ratio change was used as a measure of NHE-mediated Na^+/H^+ activity, and reported as the change in fluorescence ratio per minute. Initial rates were plotted as the average 2 or more replicates, and pIC50 values were estimated using GraphPad Prism.

[3] = molecular target: T1, human NHE3; assay: Cell-based assay of NHE-3 activity (human NHE3 inhibition assay); set-up: expressed in transfected cells; host or cells: Opossum kidney (OK) cells (ATCC), electroporated; conditions: OK cells with human NHE-3 gene, BCECF pH recovery, 0-30 μM test compound; read-out: Human NHE3 pIC50 (converted)
Experimental: Rat or human NHE-3-mediated Na^+-dependent H^+ antiport was measured using a modification of the pH sensitive dye method originally reported by Paradiso (Proc. Natl. Acad. Sci. USA. (1984) 81(23): 7436-7440). Opossum kidney (OK) cells were obtained from the ATCC and propagated per their instructions. The rat NHE-3 gene (GenBank M85300) or the human NHE-3 gene (GenBank NM_004174.1) was introduced into OK cells via electroporation, and cells were seeded into 96 well plates and grown overnight. Medium was aspirated from the wells, cells were washed twice with NaCl-HEPES buffer (100 mM NaCl, 50 mM HEPES, 10 mM glucose, 5 mM KCl, 2 mM CaCl2, 1 mM MgCl2, pH 7.4), then incubated for 30 min at room temperature with NH4Cl-HEPES buffer (20 mM NH4Cl, 80 mM NaCl, 50 mM HEPES, 5 mM KCl, 2 mM CaCl2, 1 mM MgCl2, pH 7.4) containing 5 μM bis(acetoxymethyl) 3,3′-(3′,6′-bis(acetoxymethoxy)-5-((acetoxymethoxy)carbonyl)-3-oxo-3H-spiro[isobenzofuran-1,9′-xanthene]-2′,7′-diyl)dipropanoate (BCECF-AM). Cells were washed twice with Ammonium free, Na^+-free HEPES (100 mM choline, 50 mM HEPES, 10 mM glucose, 5 mM KCl, 2 mM CaCl2, 1 mM MgCl2, pH 7.4) and incubated in the same buffer for 10 minutes at room temperature to lower intracellular pH. […] Initial rates were plotted as the average 2 or more replicates, and pIC50 values were estimated using GraphPad Prism.

[4] = test system: absorption of sodium from the intestinal lumen; assay: Inhibition of intestinal sodium absorption: rat urinary sodium and fecal form 16 h post-dose; assay type: in vivo, Sprague-Dawley rats; conditions: for FFS (fecal form score): 16 h post-dose, scale 1-5, group average
Experimental: Urinary sodium concentration and fecal form were measured to assess the ability of selected example compounds to inhibit the absorption of sodium from the intestinal lumen. Eight-week old Sprague-Dawley rats were purchased from Charles River Laboratories (Hollister, Calif.), were housed 2 per cage, and acclimated for at least 3 days before study initiation. Animals were fed Harlan Teklad Global 2018 rodent chow (Indianapolis, Ind.) and water ad libitum throughout the study and maintained in a standard light/dark cycle of 6 AM to 6 PM. On the day of the study, between 4 PM and 5 PM, a group of rats (n=6) were dosed via oral gavage with test compound or vehicle (water) at a volume of 10 mL/kg. After dose administration animals were placed in individual metabolic cages where they were also fed the same chow in meal form and watered ad libitum. At 16 h post-dose, the urine samples were collected and fecal form was assessed by two independent observations. Fecal forms were scored according to a common scale associated with increasing fecal water to the wettest observation in the cage's collection funnel (1, normal pellet; 2, pellet adhering to sides of collection funnel due to moisture; 3, loss of normal pellet shape; 4, complete loss of shape with a blotting pattern; 5, liquid fecal streams evident). A rat's fecal form score (FFS) was determined by averaging both observational scores for all rats within a group (n=6). The vehicle group average was 1. For urine samples, the volumes were determined gravimetrically and centrifuged at 3,600×g. The supernatants were diluted 100-fold in deionized Milli-Q water then filtered through a 0.2 μm GHP Pall AcroPrep filter plate (Pall Life Sciences, Ann Arbor, Mich.) prior to analysis by ion chromatography. Ten microliters of each filtered extract was injected onto a Dionex ICS-3000 ion chromatograph system (Dionex, Sunnyvale, Calif.). Cations were separated by an isocratic method using 25 mM methanesulfonic acid as the eluent on an IonPac CS12A 2 mm i.d.×250 mm, 8 μm particle size cation exchange column (Dionex). Sodium was quantified using standards prepared from a cation standard mix containing Li^+, Na^+, NH4^+, K^+, Mg^2+, and Ca^2+ (Dionex). The mean mass of sodium urinated for every group in the 16 h period was determined with the vehicle group usually urinating approximately 21 mg sodium. The urine Na (uNa) for rats in the test groups were expressed as a percentage of the vehicle mean and the means were compared to that of the vehicle group by utilizing a one-way analysis of variance coupled with a Dunnett's post hoc test.

[5] = oral gavage 10 mg/kg, urine 16 h post-dose, read-out: uNa Result, uNa (% of vehicle)

| SMILES | IC50 [3] [nM] | response vs control in vivo at 10 mg/kg [4, 5] [%] | other results |
| --- | --- | --- | --- |
| O=C(NCCCCNC(=O)NCCOCCOCCNS(=O)(=O)c1ccc(O[C@H]2c3cc(Cl)cc(Cl)c3C[C@@H]2N2CCCC2)cc1)NCCOCCOCCNS(=O)(=O)c1ccc(O[C@H]2c3cc(Cl)cc(Cl)c3C[C@@H]2N2CCCC2)cc1 [Example 17] | < 100 | – | IC50 [1]: < 100 nM; % inhibition (human Preincubation assay) [1]: C (>70%); % inhibition (human Persistence assay) [2]: C (>70%); IC50 [2]: < 100 nM |
| N[C@@H]1CCCN([C@H]2Cc3c(F)cc(Cl)cc3[C@@H]2Oc2ccc(S(=O)(=O)NCCOCCOCCNC(=O)NCCCCNC(=O)NCCOCCOCCNS(=O)(=O)c3ccc(O[C@H]4c5cc(Cl)cc(F)c5C[C@@H]4N4CCC[C@@H](N)C4)cc3)cc2)C1 [Example 29] | < 100 | – | IC50 [1]: < 100 nM; % inhibition (human Preincubation assay) [1]: C (>70%); % inhibition (human Persistence assay) [2]: B (40-70%); IC50 [2]: > 1000 nM |
| O=C(NCCOCCOCCNS(=O)(=O)c1ccc(O[C@H]2c3ccccc3C[C@@H]2N2CCCCC2)cc1)[C@H](O)[C@@H](O)C(=O)NCCOCCOCCNS(=O)(=O)c1ccc(O[C@H]2c3ccccc3C[C@@H]2N2CCCCC2)cc1 [Example 32] | < 100 | > 75 | – |
| O=C(NCCOCCOCCNS(=O)(=O)c1ccc(O[C@H]2c3ccccc3C[C@@H]2N2CCCCC2)cc1)c1cccc(C(=O)NCCOCCOCCNS(=O)(=O)c2ccc(O[C@H]3c4ccccc4C[C@@H]3N3CCCCC3)cc2)c1 [Example 33] | < 100 | 35 to 75 | – |
| O=C(NCCOCCOCCOCCNS(=O)(=O)c1ccc(O[C@H]2c3ccccc3C[C@@H]2N2CCCCC2)cc1)c1ccc(C(=O)NCCOCCOCCOCCNS(=O)(=O)c2ccc(O[C@H]3c4ccccc4C[C@@H]3N3CCCCC3)cc2)cc1 [Example 34] | < 100 | > 75 | – |
| O=C(NCCOCCOCCOCCNS(=O)(=O)c1ccc(O[C@H]2c3ccccc3C[C@@H]2N2CCCCC2)cc1)c1cccc(C(=O)NCCOCCOCCOCCNS(=O)(=O)c2ccc(O[C@H]3c4ccccc4C[C@@H]3N3CCCCC3)cc2)c1 [Example 35] | < 100 | > 75 | – |
| CC(N)(CCC(=O)NCCOCCOCCNS(=O)(=O)c1ccc(O[C@H]2c3ccccc3C[C@@H]2N2CCCCC2)cc1)CCC(=O)NCCOCCOCCNS(=O)(=O)c1ccc(O[C@H]2c3ccccc3C[C@@H]2N2CCCCC2)cc1 [Example 37] | < 100 | 35 to 75 | FFS (fecal form score) ([4]; oral gavage 10 mg/kg): 1 |
| O=C(NCCCCNC(=O)NCCOCCOCCNC(=O)Nc1ccc(O[C@H]2c3ccccc3C[C@@H]2N2CCCCC2)cc1)NCCOCCOCCNC(=O)Nc1ccc(O[C@H]2c3ccccc3C[C@@H]2N2CCCCC2)cc1 [Example 38] | < 100 | – | FFS (fecal form score) ([4]; oral gavage 3 mg/kg): 1; response vs control in vivo at 3 mg/kg ([4]; oral gavage 3 mg/kg, urine 16 h post-dose, read-out: uNa Result, uNa (% of vehicle)): > 75% |
